Measurements as given in ChEMBL document CHEMBL1136353, “Synthesis of novel fluorescent probes for the molecular chaperone Hsp90” (Bioorg Med Chem Lett, 2003).

Molecular target: Heat shock protein HSP90 (Homo sapiens, UniProt P07900+P08238)
Experiment: Binding affinity towards Heat shock protein HSP 90-alpha inhibitor
Assay type: protein assay

| SMILES | Kds [nM] |
| --- | --- |
| CO[C@H]1/C=C\C=C(/C)C(=O)NC2=CC(=O)C(NCCNC(=O)CCC3=N/C(=C\c4c(C)cc(C)n4B(F)F)C=C3)=C(C[C@@H](C)C[C@H](OC)[C@@H](O)[C@@H](C)/C=C(\C)[C@@H]1OC(N)=O)C2=O | 33.8 |
| CO[C@H]1/C=C\C=C(/C)C(=O)NC2=CC(=O)C(NCCCCCCO/C(S)=N\c3ccc(-c4c5ccc(=O)cc-5oc5cc(O)ccc45)c(C(=O)O)c3)=C(C[C@@H](C)C[C@H](OC)[C@@H](O)[C@@H](C)/C=C(\C)[C@@H]1OC(N)=O)C2=O | 23.3 |
